Columns and labels:
[1] = biological target: T1, Full length human recombinant HDAC8 protein (Homo sapiens, UniProt Q9BY41); assay: In vitro histone deacetylase assay: enzymatic HDAC8 assay, electrophoretic mobility shift; type: biochemical; conditions: substrate RHKK(Ac)-NH2, 1 nM enzyme, compounds listed under IC50 range headings
T1 construct: Full length human recombinant HDAC8 protein was expressed in baculoviral system; made in house
T1 sequence (Q9BY41 1-377): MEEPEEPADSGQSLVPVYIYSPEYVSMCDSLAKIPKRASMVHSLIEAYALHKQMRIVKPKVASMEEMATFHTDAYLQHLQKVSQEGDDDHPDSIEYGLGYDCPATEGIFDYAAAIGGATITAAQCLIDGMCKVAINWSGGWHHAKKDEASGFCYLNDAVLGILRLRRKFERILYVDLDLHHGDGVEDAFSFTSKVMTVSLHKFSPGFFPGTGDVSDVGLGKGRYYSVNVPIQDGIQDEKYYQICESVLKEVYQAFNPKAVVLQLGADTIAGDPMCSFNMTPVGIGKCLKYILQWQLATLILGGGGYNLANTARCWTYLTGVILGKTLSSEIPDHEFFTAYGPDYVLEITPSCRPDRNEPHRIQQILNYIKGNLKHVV
In short: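 Readout was microfluidic mobility-shift separation of deacetylated product from fluorescent RHKK(Ac)-NH2 substrate (2 µM), after reaction with 1 nM recombinant full-length human HDAC8 at 25 °C, pH 7.5, stopped with SDS. Twelve 3-fold-spaced concentrations tested; product/sum ratios normalized to controls and fitted with a 4-parameter model for IC50.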

[2] = biological target: T2, Recombinant N-terminal GST tag full-length human HDAC8 (Homo sapiens, UniProt Q9BY41); assay: HDAC8 probe binding assay, time resolved fluorescence (TRF); conditions: fluorescein labeled pan-HDAC inhibitor probe, 16 hours incubation, compounds listed under IC50 range headings
T2 construct: Recombinant N-terminal GST tag full-length human HDAC8; purchased SignalChem H90-30G-1000; host or cells: Sf9 insect cells (baculovirus)
T2 sequence (Q9BY41 1-377): T1 sequence (Q9BY41 1-377)
In short: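 TR-FRET probe displacement using GST-tagged full-length human HDAC8 (Sf9-expressed, 2.5 nM) with 1.5 nM fluorescein-labelled pan-HDAC inhibitor probe and anti-GST terbium, in HEPES pH 7.5 buffer with GSH, BGG, Triton X-100. Compounds 25 μM–1.3 nM, 10-point; 16 h at room temperature. IC50 from 4-parameter fit of % inhibition versus no-enzyme and DMSO controls.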

Compound | IC50 [1] [nM] | IC50 [2] [nM]
CCn1c(C(=O)Nc2ccccc2/C=C/C(=O)NO)cc2ccccc21 [Example I-79, (E)-1-ethyl-N-(2-(3-(hydroxyamino)-3-oxoprop-1-en-1-yl)phenyl)-1H-indole-2-carboxamide] | < 1000 | ≤ 1000
O=C(/C=C/c1ccccc1N1CCC(c2ccccc2)C1=O)NO (stereo not drawn) [Example I-262, (E)-N-hydroxy-3-(2-(2-oxo-3-phenylpyrrolidin-1-yl)phenyl)acrylamide] | < 1000 | ≤ 1000
O=C(/C=C/c1ccccc1NC(=O)c1ccccc1Oc1cccnc1)NO [Example I-314, (E)-N-(2-(3-(hydroxyamino)-3-oxoprop-1-en-1-yl)phenyl)-2-(pyridin-3-yloxy)benzamide] | < 1000 | ≤ 1000
O=C(/C=C/c1ccccc1NCc1ccccn1)NO [Example I-89] | < 1000 | ≤ 1000
N#Cc1cccc(C(=O)Nc2ccccc2/C=C/C(=O)NO)c1 [Example I-44, (E)-3-cyano-N-(2-(3-(hydroxyamino)-3-oxoprop-1-en-1-yl)phenyl)benzamide] | < 1000 | ≤ 1000
O=C(/C=C/c1ccccc1N1CCC(NC(=O)c2ccnn2C(F)F)CC1)NO [Example I-148] | < 1000 | ≤ 1000
O=C(/C=C/c1ccccc1NC(=O)c1ncccc1Oc1ccccc1)NO [Example I-537, N-{2-[(1E)-2-(hydroxycarbamoyl)eth-1-en-1-yl]phenyl}-3-phenoxypyridine-2-carboxamide] | < 1000 | ≤ 1000
Cc1onc(-c2c(Cl)cccc2Cl)c1C(=O)Nc1ccccc1/C=C/C(=O)NO [Example I-275, (E)-3-(2,6-dichlorophenyl)-N-(2-(3-(hydroxyamino)-3-oxoprop-1-en-1-yl)phenyl)-5-methylisoxazole-4-carboxamide] | < 1000 | ≤ 1000
Cc1onc(-c2ccc(F)cc2)c1C(=O)Nc1ccccc1/C=C/C(=O)NO [Example I-323, (E)-3-(4-fluorophenyl)-N-(2-(3-(hydroxyamino)-3-oxoprop-1-en-1-yl)phenyl)-5-methylisoxazole-4-carboxamide] | < 1000 | ≤ 1000
O=C(/C=C/c1ccccc1NC(=O)c1cccc(CCCO)c1)NO [Example I-49, (E)-N-(2-(3-(hydroxyamino)-3-oxoprop-1-en-1-yl)phenyl)-3-(3-hydroxypropyl)benzamide] | < 1000 | ≤ 1000
O=C(/C=C/c1ccccc1N1CC(c2ccccc2)CC1=O)NO (stereo not drawn) [Example I-309, (E)-N-hydroxy-3-(2-(2-oxo-4-phenylpyrrolidin-1-yl)phenyl)acrylamide] | < 1000 | ≤ 1000
O=C(/C=C/c1ccccc1N1CCC2(CCNCC2)C1)NO [Example I-115, (E)-3-(2-(2,8-diazaspiro[4.5]decan-2-yl)phenyl)-N-hydroxyacrylamide 2,2,2-trifluoroacetate] | < 1000 | ≤ 1000
CC(C)(C)OC(=O)N1CCCCC12CCN(c1ccccc1/C=C/C(=O)NO)C2 (stereo not drawn) [Example I-543, tert-butyl (E)-2-(2-(3-(hydroxyamino)-3-oxoprop-1-en-1-yl)phenyl)-2,6-diazaspiro[4.5]decane-6-carboxylate] | < 1000 | ≤ 1000
O=C(/C=C/c1ccccc1NC(=O)c1cccc(Oc2ccccc2)c1)NO [Example I-536, (E)-N-(2-(3-(hydroxyamino)-3-oxoprop-1-en-1-yl)phenyl)-3-phenoxybenzamide] | < 1000 | ≤ 1000
CC(=O)Nc1cccc(CNc2ccccc2/C=C/C(=O)NO)c1 [Example I-43, (E)-3-(2-((3-acetamidobenzyl)amino)phenyl)-N-hydroxyacrylamide] | < 1000 | 1000 to 100000
O=C(/C=C/c1ccccc1NC(=O)c1ccc(C(F)(F)F)cc1)NO [Example I-61, (E)-N-(2-(3-(hydroxyamino)-3-oxoprop-1-en-1-yl)phenyl)-4-(trifluoromethyl)benzamide] | < 1000 | ≤ 1000
Cn1ccnc1S(=O)(=O)N1CCN(c2ccccc2/C=C/C(=O)NO)CC1 [Example I-252, (E)-N-hydroxy-3-(2-(4-((1-methyl-1H-imidazol-2-yl)sulfonyl)piperazin-1-yl)phenyl)acrylamide] | < 1000 | ≤ 1000

Compound | IC50 [1] [nM] | IC50 [2] [nM]
Cc1cc(CN2CCN(c3ccccc3/C=C/C(=O)NO)CC2)n(C)n1 [Example I-183, (E)-3-(2-(4-((1,3-dimethyl-1H-pyrazol-5-yl)methyl)piperazin-1-yl)phenyl)-N-hydroxyacrylamide] | < 1000 | ≤ 1000
COc1ccc(/C=C/C(=O)NO)c(NC(=O)c2ccccc2Oc2ccc(Cl)cc2F)c1 [II-37, 2-(4-chloro-2-fluorophenoxy)-N-{2-[(1E)-2-(hydroxycarbamoyl)eth-1-en-1-yl]-5-methoxyphenyl}benzamide] | < 1000 | ≤ 1000
O=C(/C=C/c1cc(OC(F)(F)F)ccc1NC(=O)c1ccccc1Oc1ccc(F)cc1)NO [Example I-557, 2-(4-fluorophenoxy)-N-{2-[(1E)-2-(hydroxycarbamoyl)eth-1-en-1-yl]-4-(trifluoromethoxy)phenyl}benzamide] | < 1000 | ≤ 1000
CS(=O)(=O)c1ccc(CNc2ccccc2/C=C/C(=O)NO)cc1 [Example I-95, (E)-N-hydroxy-3-(2-((4-(methylsulfonyl)benzyl)amino)phenyl)acrylamide] | < 1000 | ≤ 1000
CC(C)(C)OC(=O)N1CCN(c2ccccc2/C=C/C(=O)NO)C(=O)C1 [Example I-263, tert-butyl (E)-4-(2-(3-(hydroxyamino)-3-oxoprop-1-en-1-yl)phenyl)-3-oxopiperazine-1-carboxylate] | < 1000 | ≤ 1000
CC(=O)NC1CCN(c2ccccc2/C=C/C(=O)NO)C1 (stereo not drawn) [Example I-307, (E)-3-(2-(3-acetamidopyrrolidin-1-yl)phenyl)-N-hydroxyacrylamide] | < 1000 | ≤ 1000
Cc1cc(C)n(Cc2ccc(C(=O)Nc3ccccc3/C=C/C(=O)NO)cc2)n1 [Example I-288, (E)-4-((3,5-dimethyl-1H-pyrazol-1-yl)methyl)-N-(2-(3-(hydroxyamino)-3-oxoprop-1-en-1-yl)phenyl)benzamide] | < 1000 | ≤ 1000
O=C(/C=C/c1ccccc1NCc1ccc2nccn2c1)NO [Example I-103, (E)-N-hydroxy-3-(2-((imidazo[1,2-a]pyridin-6-ylmethyl)amino)phenyl)acrylamide] | < 1000 | ≤ 1000
O=C(/C=C/c1ccccc1NCc1cccc(CN2CCOCC2)c1)NO [Example I-101, (E)-N-hydroxy-3-(2-((3-(morpholinomethyl)benzyl)amino)phenyl)acrylamide] | < 1000 | ≤ 1000
NC(=O)CCc1cccc(C(=O)Nc2ccccc2/C=C/C(=O)NO)c1 [Example I-107, (E)-3-(3-amino-3-oxopropyl)-N-(2-(3-(hydroxyamino)-3-oxoprop-1-en-1-yl)phenyl)benzamide] | < 1000 | ≤ 1000
Cn1ccc(S(=O)(=O)NC2CCN(c3ccccc3/C=C/C(=O)NO)CC2)n1 [Example I-219, (E)-N-hydroxy-3-(2-(4-((1-methyl-1H-pyrazole)-3-sulfonamido)piperidin-1-yl)phenyl)acrylamide] | < 1000 | ≤ 1000
CC(C)C(=O)Nc1ccccc1/C=C/C(=O)NO [Example I-69, (E)-N-hydroxy-3-(2-isobutyramidophenyl)acrylamide] | < 1000 | ≤ 1000
O=C(/C=C/c1ccccc1NC(=O)c1ccccc1Oc1ccc(Cl)cc1F)NO [Example I-534, (E)-2-(4-chloro-2-fluorophenoxy)-N-(2-(3-(hydroxyamino)-3-oxoprop-1-en-1-yl)phenyl)benzamide] | < 1000 | ≤ 1000
O=C(/C=C/c1ccccc1NC(=O)c1ccccc1Oc1ccc(C(F)(F)F)nc1)NO [Example I-540, (E)-N-(2-(3-(hydroxyamino)-3-oxoprop-1-en-1-yl)phenyl)-2-((6-(trifluoromethyl)pyridin-3-yl)oxy)benzamide] | < 1000 | ≤ 1000
O=C(/C=C/c1ccccc1C(=O)N1CCC[C@H](Cn2ccnc2)C1)NO [II-27, (R,E)-3-(2-(3-((1H-imidazol-1-yl)methyl)piperidine-1-carbonyl)phenyl)-N-hydroxyacrylamide] | < 1000 | ≤ 1000
O=C(/C=C/c1ccccc1N1CCN(Cc2nccs2)CC1)NO [Example I-170, (E)-N-hydroxy-3-(2-(4-(thiazol-2-ylmethyl)piperazin-1-yl)phenyl)acrylamide] | < 1000 | ≤ 1000
